Assay results as given in patent publication US7491827B2, “Aryl sulfonamides useful as inhibitors of chemokine receptor activity” (Millennium Pharmaceuticals, Inc., priority 2003, dated 2009).

Molecular target: T1, cloned human CCR8 receptor stably expressed in L1.2 cells (Homo sapiens, UniProt P51685)
T1 construct: expressed in transfected cells
Experiment: whole cell binding screen: inhibition of biotinylated human I309 binding to CCR8 (FMAT 8100 HTS)
Conditions: Ki of compounds to inhibit I-309 binding to CCR8, L1.2/hCCR8 cells, biotinylated human I-309, 10 point concentration response starting at 10 μM
Description: This whole cell binding screen evaluates the ability of compounds to inhibit biotinlyated human I309 binding to the cloned human CCR8 receptor stably expressed in L1.2 cells. Human CCR8 gene was amplified by PCR using PFU polymerase under standard conditions from human genomic DNA purchased from Stratagene. The PCR primers used were:
The 5′ and 3′ primers contained flanking enzyme sites (Bam Hi and Not 1,respectively), which were used to subclone the gene into pcDNA3.1. […] The CCR8 vector was then transfected into L1.2 cells (murine pre-B cells) by electroporation.
Compounds were screened using the FMAT™ 8100 HTS System (purchased from Applied Biosystems).
A suspension was prepared of L1.2/hCCR8 cells at 4.0×10^5 cells/mL in a binding buffer (Buffer consisting of Hanks Balanced Salt Solution (without phenol red), 10 mM HEPES, 0.1% Fatty Acid Free BSA, 0.02% Sodium Azide).
Dilution series of 10 mM stock concentrations of the test compounds were prepared in DMSO and further diluted into binding buffer defined above) to three times the final assay concentration.
10 point concentration response curve is constructed for each compound, starting at 10 μM (final assay concentration in Binding Buffer). […] The components were mixed in wells by covering the plate with aluminum foil and rotating for 0.5 hours. […] Average fluorescence reported for each concentration was normalized to percent inhibition based on negative (no inhibitor) and positive (100 nM excess unlabeled I309 (R and D Systems)) controls.

T1 sequence (P51685 whole entry): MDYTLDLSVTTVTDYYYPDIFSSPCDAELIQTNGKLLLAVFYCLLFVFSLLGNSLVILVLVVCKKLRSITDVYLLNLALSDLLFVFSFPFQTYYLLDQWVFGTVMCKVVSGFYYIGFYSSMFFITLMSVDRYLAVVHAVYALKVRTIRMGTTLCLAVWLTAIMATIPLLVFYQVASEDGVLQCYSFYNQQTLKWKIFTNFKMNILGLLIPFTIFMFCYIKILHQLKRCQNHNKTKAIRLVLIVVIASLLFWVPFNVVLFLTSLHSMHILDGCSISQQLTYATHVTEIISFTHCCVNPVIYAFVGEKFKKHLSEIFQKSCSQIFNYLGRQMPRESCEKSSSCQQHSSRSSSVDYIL

Structure (SMILES)	Ki [nM]
Cc1ccccc1C(=O)Nc1ccc(S(=O)(=O)NC2CCN(C(=O)[C@@H]3CCCN3)CC2)c2ccccc12 [Compound C-125, (S)-2-Methyl-N-{4-[1-(pyrrolidine-2-carbonyl)-piperidin-4-ylsulfamoyl]-naphthalen-1-yl}-benzamide]	< 500
COCC(=O)N1CCC(NS(=O)(=O)c2ccc(NC(=O)c3ccccc3C)c3ccccc23)CC1 [Compound C-56, N{4-[1-(2-Methoxy-acetyl)-piperidin-4-ylsulfamoyl]-naphthalen-1-yl}-2-methyl-benzamide]	< 500
CCOC(=O)N1CCC(NS(=O)(=O)c2cccc3c(NC(=O)c4ccccc4)cccc23)CC1 [Compound H-6, 4-(5-Benzoylamino-naphthalene-1-sulfonylamino)-piperidine-1-carboxylic acid ethylester]	< 500

Same assay, conditions: L1.2/hCCR8 cells, biotinylated human I-309, 10 point concentration response starting at 10 μM; read-out: Ki of compounds to inhibit I-309 binding to CCR8

Structure (SMILES)	Ki [nM]
COC(=O)N1CCC(NS(=O)(=O)c2ccc(NC(=O)c3ccccc3C)c3c2CCCC3)CC1 [Compound E-15, 4-[4-(2-Methyl-benzoylamino)-5,6,7,8-tetrahydro-naphthalene-1-sulfonylamino]-piperidine-1-carboxylic acid methyl ester]	< 500
CCNC(=O)N1CCC(NS(=O)(=O)c2ccc(NC(=O)c3ccccc3C)c3c2CCCC3)CC1 [Compound E-19, 4-[4-(2-Methyl-benzoylamino)-5,6,7,8-tetrahydro-naphthalene-1-sulfonylamino]-piperidine-1-carboxylic acid ethylamide]	< 500
CCOC(=O)N1CCC(NS(=O)(=O)c2ccc(C(=O)N(C)C3CCCCC3)c3ccccc23)CC1 [Compound F-27, 4-[4-(Cyclohexyl-methyl-carbamoyl)-naphthalene-1-sulfonylamino]-piperidine-1-carboxylic acid ethyl ester]	< 500
CCCC(=O)N1CCC(NS(=O)(=O)c2ccc(C(=O)Nc3cccc(C)c3)c3ccccc23)CC1 [Compound F-26, 4-(1-Butyryl-piperidin-4-ylsulfamoyl)-naphthalene-1-carboxylic acid m-tolylainde]	< 500
O=C(Nc1ccc(S(=O)(=O)Nc2cccnc2)c2ccccc12)c1ccccc1 [Compound A-16, N-[4-(Pyridin-3-ylsulfamoyl)-naphthalen-1-yl]-benzamide]	< 30000
CN(C)C(=O)N1CCC(NS(=O)(=O)c2ccc(C(=O)Nc3ccccc3Cl)c3ccccc23)CC1 [Compound F-23, 4-[4-(2-Chloro-phenylcarbamoyl)-naphthalene-1-sulfonylamino]-piperidine-1-carboxylic acid dimethylamide]	< 500
CCCC(=O)N1CCC(NS(=O)(=O)c2ccc(NC(=O)c3ccccc3OC)c3ccccc23)CC1 [Compound C-104, N-[4-(1-Butyryl-piperidin-4-ylsulfamoyl)-naphthalen-1-yl]-2-methoxy-benzamide]	< 500
CCOC(=O)N1CCC(NS(=O)(=O)c2cc3c(c(NC(=O)c4ccccc4C)c2)CCCC3)CC1 [Compound H-59, 4-[4-(2-Methyl-benzoylamino)-5,6,7,8-tetrahydro-naphthalene-2-sulfonylamino]-piperidine-1-carboxylic acid ethyl ester]	< 1000
Cc1ccccc1NC(=O)c1ccc(S(=O)(=O)NC2CCN(C(=O)N(C)C)CC2)c2ccccc12 [Compound F-12, 4-(4-o-Tolylcarbamoyl-naphthalene-1-sulfonylamino)-piperidine-1-carboxylic acid dimethylamide]	< 500
CCCC(=O)N1CCC(NS(=O)(=O)c2ccc(C(=O)Nc3ccccc3Cl)c3ccccc23)CC1 [Compound F-22, 4-(1-Butyryl-piperidin-4-ylsulfamoyl)-naphthalene-1-carboxylic acid (2-chloro-phenyl)-amide]	< 500
CCOC(=O)N1C[C@@H](C)[C@@H](NS(=O)(=O)c2ccc(NC(=O)c3ccccc3C)c3ccccc23)[C@@H](C)C1 [Compound C-70, (±)-(cis,cis)-3,5-Dimethyl-4-[4-(2-methyl-benzoylamino)-naphthalene-1-sulfonylamino]-piperidine-1-carboxylic acid ethyl ester]	< 1000
CCCC(=O)N1CC[C@H](NS(=O)(=O)c2ccc(NC(=O)c3ccccc3C)c3ccccc23)[C@@H](CO)C1 (racemic) [Compound C-76, (±)-(trans)-N-[4-(1-butyryl-3-hydroxymethyl-piperidin-4-ylsulfamoyl)-naphthalen-1-yl]-2-methyl-benzamide]	< 500
CCN1CCC(NS(=O)(=O)c2cccc3c(NC(=O)c4ccccc4C)cccc23)CC1 [Compound H-14, N-[5-(1-Ethyl-piperidin-4-ylsulfamoyl)-naphthalen-1-yl]-2-methyl-benzamide]	< 500
CCOC(=O)N1CC[C@H](NS(=O)(=O)c2ccc(NC(=O)c3ccccc3C)c3ncccc23)[C@H](C)C1 [Compound J-40, (3R, 4S)-3-Methyl-4-[8-(2-methyl-benzoylamino)-quinoline-5-sulfonylamino]-piperidine-1-carboxylic acid ethyl ester]	< 500
CCCC(=O)N1CCC(NS(=O)(=O)c2cccc3c(C(=O)NC4CCCCC4C)cccc23)CC1 (racemic) [Compound H-29, (±)-5-(1-Butyryl-piperidin-4-ylsulfamoyl)-naphthalene-1-carboxylic acid (2-methyl-cyclohexyl)-amide]	< 500
Cc1ccccc1C(=O)Nc1ccc(S(=O)(=O)N[C@H]2CCN(C(=O)C(C)N)C[C@H]2C)c2cccnc12 (stereo in doubt) [Compound J-39, (3R, 4S)-N-{5-[1-(2-(R)-Amino-propionyl)-3-methyl-piperidin-4-ylsulfamoyl]-quinolin-8-yl}-2-methyl-benzamide]	< 500
CCOC(=O)[C@@H]1CNCC[C@@H]1NS(=O)(=O)c1ccc(NC(=O)c2ccccc2C)c2ccccc12 (racemic) [Compound C-77, (±)-(cis)-4-[4-(2-Methyl-benzoylamino)-naphthalene-1-sulfonylamino]-piperidine-3-carboxylic acid ethyl ester]	< 30000
CC(C)(C)OC(=O)N1CCC(NS(=O)(=O)c2ccc(NC(=O)c3ccccc3F)c3ccccc23)CC1 [Compound B-15, 4-[4-(2-Fluoro-benzoylamino)-naphthalene-1-sulfonylamino]-piperidine-1-carboxylic acid tert-butyl ester]	< 500
CCOC(=O)N1CC[C@@H](NS(=O)(=O)c2ccc(NC(=O)c3ccccc3C)c3ccccc23)[C@@H](C)C1 (single isomer, unassigned) [Compound C-138, cis-3-Methyl-4-[4-(2-methyl-benzoylamino)-naphthalene-1-sulfonylamino]-piperidine-1-carboxylic acid ethyl ester]	< 1000
Cc1ccccc1C(=O)Nc1ccc(S(=O)(=O)NC2CCCNC2)c2c1CCCC2 (racemic) [Compound E-28, (±)-2-Methyl-N-[4-(piperidin-3-ylsulfamoyl)-5,6,7,8-tetrahydro-naphthalen-1-yl]-benzamide]	< 500
Cc1ccccc1C(=O)Nc1ccc(S(=O)(=O)NC2CCN(C(=O)CN3CCCC3)CC2)c2ccccc12 [Compound C-147, 2-Methyl-N-{4-[1-(2-pyrrolidin-1-yl-acetyl)-piperidin-4-ylsulfamoyl]-naphthalen-1-yl}-benzamide]	< 500
Cc1ccccc1C(=O)Nc1ccc(S(=O)(=O)NC2CCOCC2)c2c1CCCC2 [Compound E-23, 2-Methyl-N-[4-(tetrahydro-pyran-4-ylsulfamoyl)-5,6,7,8-tetrahydro-naphthalen-1-yl]-benzamide]	< 500
